Test results taken from US11439707B2, “Hypocrellin derivative substituted both in a peri-position and in 2-position by amino, preparation method, and application thereof” (priority 2017, dated 2022).
“And” between values parts separate entries of the source, which are not always exact repeats. Equal values may be shown once.

Legend:
[1] = singlet oxygen efficiency test, reference rose bengal; assay type: physicochemical
[2] = absorption spectrum (maximum absorption wavelength, molar extinction coefficient); assay type: physicochemical

Row | Compound | singlet oxygen yield [1] | maximum absorption wavelength [2] | molar extinction coefficient [2]
1 | COCCOCCC(=O)OCCOCCNc1c(NCCOCCOC(=O)CCOCCOC)c2c(=O)cc(OC)c3c4c(OC)cc(=O)c5c(O)c(OC)c6c(c(c1C=C(C)C6C(C)=O)c23)c54 (stereo not drawn) [HB-1a-PEG1] | 35% | 625 nm | 31,000 M^−1cm^−1
2 | COc1c(O)c2c(=O)cc(OC)c3c4c(OC)cc(=O)c5c(NCCOCCO)c(NCCOCCO)c6c(c(c1C(C(C)=O)C(C)=C6)c23)c54 (stereo not drawn) [HB-1a] | 35% | 630 nm | 30,000 M^−1cm^−1
3 | COCCOCCOCCOCCOCCOCCOCCC(=O)OCCOCCNc1c(O)c2c(=O)cc(OC)c3c4c(OC)cc(=O)c5c(NCCOCCOC(=O)CCOCCOCCOCCOCCOCCOCCOC)c(OC)c6c(c(c1C=C(C)C6C(C)=O)c23)c54 (stereo not drawn) [HB-1b-PEG6] | 32% | 622 nm | 30,000 M^−1cm^−1
4 | COc1c(NCCOCCO)c2c(=O)cc(OC)c3c4c(OC)cc(=O)c5c(O)c(NCCOCCO)c6c(c(c1C(C(C)=O)C(C)=C6)c23)c54 (stereo not drawn) [HB-1b] | 36% | 622 nm | 28,000 M^−1cm^−1
5 | COCCOCCC(=O)OCCOCCNc1c2c3c4c(c(OC)c(=O)c5c(O)cc(OC)c(c6c(OC)cc(NCCOCCOC(=O)CCOCCOC)c(c1=O)c63)c54)C(C(C)=O)C(C)=C2 (stereo not drawn) [HB-1c-PEG1] | 38% | 626 nm | 33,000 M^−1cm^−1
6 | COc1c2c3c4c(c(NCCOCCO)c(=O)c5c(O)cc(OC)c(c6c(OC)cc(NCCOCCO)c(c1=O)c63)c54)C=C(C)C2C(C)=O (stereo not drawn) [HB-1d] | 35% | 622 nm | 30,000 M^−1cm^−1
7 | COCCOCCC(=O)OCCNc1c(NCCOC(=O)CCOCCOC)c2c(=O)cc(OC)c3c4c(OC)cc(=O)c5c(O)c(OC)c6c(c(c1C=C(C)C6C(C)=O)c23)c54 (stereo not drawn) [HB-2a-PEG1] | 30% | 620 nm | 30,500 M^−1cm^−1
8 | COc1c(O)c2c(=O)cc(OC)c3c4c(OC)cc(=O)c5c(NCCO)c(NCCO)c6c(c(c1C(C(C)=O)C(C)=C6)c23)c54 (stereo not drawn) [HB-2a] | 28% |  | 
9 | COc1c(NCCO)c2c(=O)cc(OC)c3c4c(OC)cc(=O)c5c(O)c(NCCO)c6c(c(c1C(C(C)=O)C(C)=C6)c23)c54 (stereo not drawn) [HB-2b] | 25% | 627 nm | 31.500 M⁻¹ cm⁻¹
10 | COCCOCCOCCOCCOCCOCCOCCOCCOCCOCCOCCOCCOCCC(=O)OCCNc1c2c3c4c(c(OC)c(=O)c5c(O)cc(OC)c(c6c(OC)cc(NCCOC(=O)CCOCCOCCOCCOCCOCCOCCOCCOCCOCCOCCOCCOCCOC)c(c1=O)c63)c54)C(C(C)=O)C(C)=C2 (stereo not drawn) [HB-2c-PEG12] | 36% | 626 nm | 32,500 M^−1cm^−1
11 | COc1c2c3c4c(c(NCCO)c(=O)c5c(NCCO)cc(OC)c(c6c(OC)cc(O)c(c1=O)c63)c54)C=C(C)C2C(C)=O (stereo not drawn) [HB-2c] | 30% | 628 nm | 31,000 M^−1cm^−1
12 | COc1c2c3c4c(c(NCCO)c(=O)c5c(O)cc(OC)c(c6c(OC)cc(NCCO)c(c1=O)c63)c54)C=C(C)C2C(C)=O (stereo not drawn) [HB-2d] | 26% | 629 nm | 30,000 M^−1cm^−1
13 | COc1c(O)c2c(=O)cc(OC)c3c4c(OC)c(Br)c(=O)c5c(NCCNCCOCCO)c(NCCNCCOCCO)c6c(c(c1C(C(C)=O)C(C)=C6)c23)c54 (stereo not drawn) [HB-5a-Br-PEG1] | 28% | 622 nm | 30,500 M^−1cm^−1
14 | COc1c(O)c2c(=O)cc(OC)c3c4c(OC)cc(=O)c5c(NCCNCCOCCO)c(NCCNCCOCCO)c6c(c(c1C(C(C)=O)C(C)=C6)c23)c54 (stereo not drawn) [HB-5a-PEG1] | 28% | 622 nm | 29,500 M^−1cm^−1
15 | COc1c(NCCNCCOCCOCCOCCOCCO)c2c(=O)cc(OC)c3c4c(OC)cc(=O)c5c(O)c(NCCNCCOCCOCCOCCOCCO)c6c(c(c1C(C(C)=O)C(C)=C6)c23)c54 (stereo not drawn) [HB-5b-PEG4] | 31% | 625 nm | 30,500 M^−1cm^−1
16 | COc1c2c3c4c(c(NCCNCCOCCOCCOCCOCCO)c(=O)c5c(NCCNCCOCCOCCOCCOCCO)c(Br)c(OC)c(c6c(OC)cc(O)c(c1=O)c63)c54)C=C(C)C2C(C)=O (stereo not drawn) [HB-5c-Br-PEG4] | 36% | 630 nm | 31,500 M^−1cm^−1
17 | COc1c2c3c4c(c(NCCNCCOCCOCCOCCOCCO)c(=O)c5c(NCCNCCOCCOCCOCCOCCO)cc(OC)c(c6c(OC)cc(O)c(c1=O)c63)c54)C=C(C)C2C(C)=O (stereo not drawn) [HB-5c-PEG4] | 35% | 628 nm | 31,500 M^−1cm^−1

Row | Compound | singlet oxygen yield [1] | maximum absorption wavelength [2] | molar extinction coefficient [2]
18 | COc1c2c3c4c(c(NCCNCCOCCO)c(=O)c5c(O)c(Br)c(OC)c(c6c(OC)cc(NCCNCCOCCO)c(c1=O)c63)c54)C=C(C)C2C(C)=O (stereo not drawn) [HB-5d-Br-PEG1] | 32% | 624 nm | 29,500 M^−1cm^−1
19 | COc1c2c3c4c(c(NCCNCCOCCO)c(=O)c5c(O)cc(OC)c(c6c(OC)cc(NCCNCCOCCO)c(c1=O)c63)c54)C=C(C)C2C(C)=O (stereo not drawn) [HB-5d-PEG1] | 32% | 625 nm | 30,500 M^−1cm^−1
20 | COc1c(O)c2c(=O)cc(OC)c3c4c(OC)cc(=O)c5c(NCCSCCOCCO)c(NCCSCCOCCO)c6c(c(c1C(C(C)=O)C(C)=C6)c23)c54 (stereo not drawn) [HB-6a-PEG1] | 28% | 622 nm | 30,500 M^−1cm^−1
21 | COc1c2c3c4c(c(NCCSCCOCCO)c(=O)c5c(O)cc(OC)c(c6c(OC)cc(NCCSCCOCCO)c(c1=O)c63)c54)C=C(C)C2C(C)=O (stereo not drawn) [HB-6d-PEG1] | 32% | 625 nm | 30,500 M^−1cm^−1
22 | COc1c(O)c2c(=O)cc(OC)c3c4c(OC)cc(=O)c5c(NCC(=O)O)c(NCC(=O)O)c6c(c(c1C(C(C)=O)C(C)=C6)c23)c54 (stereo not drawn) [HB-7a] | 28% | 620 nm | 26,500 M^−1cm^−1
23 | COc1c(NCC(=O)O)c2c(=O)cc(OC)c3c4c(OC)cc(=O)c5c(O)c(NCC(=O)O)c6c(c(c1C(C(C)=O)C(C)=C6)c23)c54 (stereo not drawn) [HB-7b] | 25% | 622 nm | 28,000 M^−1cm^−1
24 | COc1c2c3c4c(c(NCC(=O)O)c(=O)c5c(NCC(=O)O)cc(OC)c(c6c(OC)cc(O)c(c1=O)c63)c54)C=C(C)C2C(C)=O (stereo not drawn) [HB-7c] | 27% | 618 nm | 27,500 M^−1cm^−1
25 | COCCOC(=O)CCCNc1c(NCCCC(=O)OCCOC)c2c(=O)cc(OC)c3c4c(OC)cc(=O)c5c(O)c(OC)c6c(c(c1C=C(C)C6C(C)=O)c23)c54 (stereo not drawn) [HB-8a-PEG1] | 28% | 621 nm | 30,500 M^−1cm^−1
26 | COCCOCCOCCOCCOCCOCCOC(=O)CCCNc1c(O)c2c(=O)cc(OC)c3c4c(OC)cc(=O)c5c(NCCCC(=O)OCCOCCOCCOCCOCCOCCOC)c(OC)c6c(c(c1C=C(C)C6C(C)=O)c23)c54 (stereo not drawn) [HB-8b-PEG6] | 30% | 622 nm | 30,000 M^−1cm^−1
27 | COc1c(NCCCC(=O)O)c2c(=O)cc(OC)c3c4c(OC)cc(=O)c5c(O)c(NCCCC(=O)O)c6c(c(c1C(C(C)=O)C(C)=C6)c23)c54 (stereo not drawn) [HB-8b] | 26% | 618 nm | 28,500 M^−1cm^−1
28 | COCCOCCOCCOCCOCCOCCOC(=O)CCCNc1c2c3c4c(c(OC)c(=O)c5c(O)cc(OC)c(c6c(OC)cc(NCCCC(=O)OCCOCCOCCOCCOCCOCCOC)c(c1=O)c63)c54)C(C(C)=O)C(C)=C2 (stereo not drawn) [HB-8c-PEG6] | 34% | 630 nm | 32,500 M^−1cm^−1
29 | COCCOCCOCCOCCOCCOCCOCCOCCOCCOCCOCCOCCOC(=O)CCCNc1c2c3c4c(c(OC)c(=O)c5c(O)cc(OC)c(c6c(OC)cc(NCCCC(=O)OCCOCCOCCOCCOCCOCCOCCOCCOCCOCCOCCOCCOC)c(c1=O)c63)c54)C(C(C)=O)C(C)=C2 (stereo not drawn) [HB-8c-PEG12] | 36% | 628 nm | 33,000 M^−1cm^−1
30 | COCCOCCOCCOCCOCCOCCOC(=O)CCCNc1c2c3c4c(c(OC)c(=O)c5c(NCCCC(=O)OCCOCCOCCOCCOCCOCCOC)cc(OC)c(c6c(OC)cc(O)c(c1=O)c63)c54)C(C(C)=O)C(C)=C2 (stereo not drawn) [HB-8d-PEG6] | 32% | 620 nm | 31,500 M^−1cm^−1
31 | COc1c2c3c4c(c(NCCCC(=O)O)c(=O)c5c(O)cc(OC)c(c6c(OC)cc(NCCCC(=O)O)c(c1=O)c63)c54)C=C(C)C2C(C)=O (stereo not drawn) [HB-8d] | 26% | 624 nm | 29,000 M^−1cm^−1
32 | COCCOCCNC(=O)CCNc1c(NCCC(=O)NCCOCCOC)c2c(=O)cc(OC)c3c4c(OC)cc(=O)c5c(O)c(OC)c6c(c(c1C=C(C)C6C(C)=O)c23)c54 (stereo not drawn) [HB-10a-NH-PEG1] | 30% | 621 nm | 31,500 M^−1cm^−1
33 | COc1c(O)c2c(=O)cc(OC)c3c4c(OC)cc(=O)c5c(NCCC(=O)O)c(NCCC(=O)O)c6c(c(c1C(C(C)=O)C(C)=C6)c23)c54 (stereo not drawn) [HB-10a] | 32% | 620 nm | 31,000 M^−1cm^−1
34 | C=CC1=C(C)c2cc3[nH]c(cc4[nH]c(cc5nc(cc1n2)C(C)=C5C=C)c(C)c4CCC(=O)O)c(CCC(=O)O)c3C [PpIX, reference compound] |  | 570 nm and 630 nm | less than 10000 M^−1cm^−1
